Test results published in patent publication US8748624B2, “Picolinamido-propanoic acid derivatives useful as glucagon receptor antagonists” (Janssen Pharmaceutica NV, priority 2011, dated 2014).

These compounds were tested against human GCGR (Homo sapiens (Human), UniProt P47871) (assay: Cellular functional assay, cAMP readout (glucagon-stimulated cAMP in HEK293 cells expressing human GCGR)). Conditions: hGluc-1 HEK cells, LANCE TR-FRET, IC50 converted to Ki, average if tested more than once.
human GCGR, sequence (P47871 26-477): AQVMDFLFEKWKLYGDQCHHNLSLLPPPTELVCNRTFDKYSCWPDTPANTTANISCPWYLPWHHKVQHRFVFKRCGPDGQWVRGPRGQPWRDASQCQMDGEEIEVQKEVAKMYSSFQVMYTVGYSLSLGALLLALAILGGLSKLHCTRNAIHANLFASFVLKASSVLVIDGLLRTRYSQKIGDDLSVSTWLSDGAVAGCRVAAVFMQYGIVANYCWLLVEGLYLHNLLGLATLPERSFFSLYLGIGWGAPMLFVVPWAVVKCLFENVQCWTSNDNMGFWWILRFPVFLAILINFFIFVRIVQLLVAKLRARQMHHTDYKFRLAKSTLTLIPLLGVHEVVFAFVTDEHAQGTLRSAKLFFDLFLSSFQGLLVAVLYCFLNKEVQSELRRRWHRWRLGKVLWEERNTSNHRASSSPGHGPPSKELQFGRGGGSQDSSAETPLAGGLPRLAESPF
Assay type: cell-based
Protocol: IC50 Values in Cellular Functional Assays: cAMP Readout
Full-length human GCGR (Accession Number: NM000160) subcloned into pcDNA3.1 was stably transfected into HEK293 cells (hGluc-1 HEK) and maintained under G418 selection (500 μg/mL). Cell cultures were maintained in DMEM/F12 media supplemented with 10% FBS and 1% GlutaMax. Glucagon stimulated cAMP was quantified using LANCE technology as per manufacturer instructions. On the day of the experiment, spent media was removed and cells were washed with Hank's Buffered Saline solution (HBSS) and cells were harvested with non-enzymatic cell dissociation solution, then washed once with HBSS. Cells were re-suspended in stimulation buffer at a concentration of 0.83×10^6 cells/ml and cAMP detection antibody was added. 6 μl/well of this solution was then dispensed in a 384 well plate (cell density 5000 cells/well). Test compound was serially diluted in DMSO and 50 nl were dispensed on top of the cell solution and allowed to incubate for 30 minutes. 6 μl of a 2× glucagon solution (final concentration in assay […]) was then added and the reaction was terminated after 5 minutes with the addition of detection mix. The mixture was incubated, protected from light for 1.5 h. cAMP levels were quantified by TR-FRET in an EnVision instrument against a known standard. IC50's were generated by using a non-linear regression macro driven in Excel and converted to K, values.
`O=C(O)CCNC(=O)c1ccc(-c2cc(Cl)ccc2CNc2ccc(-c3ccc(F)cc3F)cc2)cn1` [Compound 18, 3-(5-(5-chloro-2-(((2′,4′-difluoro-[1,1′-biphenyl]-4-yl)amino)methyl)phenyl)picolinamido)propanoic acid] gave a Ki of 280 nM. With `O=C(O)CCNC(=O)c1ccc(-c2cc(C(F)(F)F)ccc2CNc2ccc(-c3ccc(Cl)cc3C(F)(F)F)cc2)cn1` [Compound 25] the Ki was 220 nM. With `COc1ccc(CNc2ccc(-c3ccc(Cl)cc3)cc2)c(-c2ccc(C(=O)NCCC(=O)O)nc2)c1` [Compound 45, 3-(5-(2-(((4′-chloro-[1,1′-biphenyl]-4-yl)amino)methyl)-5-methoxyphenyl)picolinamido)propanoic acid] the Ki was over 20000 nM. For `COc1ccc(CNc2ccc(-c3ccc(Cl)cc3Cl)cc2)c(-c2ccc(C(=O)NCCC(=O)O)nc2)c1` [Compound 46, 3-(5-(2-(((2′,4′-dichloro-[1,1′-biphenyl]-4-yl)amino)methyl)-5-methoxyphenyl)picolinamido)propanoic acid], the Ki was over 20000 nM. `COc1ccc(CNc2ccc(-c3ccc(C(F)(F)F)cc3)cc2)c(-c2ccc(C(=O)NCCC(=O)O)nc2)c1` [Compound 47, 3-(5-(5-methoxy-2-(((4′-(trifluoromethyl)-[1,1′-biphenyl]-4-yl)amino)methyl)phenyl)picolinamido)propanoic acid] gave a Ki of over 20000 nM. With `COc1ccc(CNc2ccc(-c3ccc(OC(F)(F)F)cc3)cc2)c(-c2ccc(C(=O)NCCC(=O)O)nc2)c1` [Compound 48, 3-(5-(5-methoxy-2-(((4′-(trifluoromethoxy)-[1,1′-biphenyl]-4-yl)amino)methyl)phenyl)picolinamido)propanoic acid] the Ki was over 20000 nM. In the case of `COc1ccc(CNc2ccc(-c3ccc(C(C)(C)C)cc3)cc2)c(-c2ccc(C(=O)NCCC(=O)O)nc2)c1` [Compound 49, 3-(5-(2-(((4′-(tert-butyl)-[1,1′-biphenyl]-4-yl)amino)methyl)-5-methoxyphenyl)picolinamido)propanoic acid], the Ki is reported as over 20000 nM. Work on `COc1ccc(CNc2ccc(-c3cccc(OC(F)(F)F)c3)cc2)c(-c2ccc(C(=O)NCCC(=O)O)nc2)c1` [Compound 50, 3-(5-(5-methoxy-2-(((3′-(trifluoromethoxy)-[1,1′-biphenyl]-4-yl)amino)methyl)phenyl)picolinamido)propanoic acid] yielded a Ki of over 20000 nM. `O=C(O)CCNC(=O)c1ccc(-c2cc(C(F)(F)F)cc(C(F)(F)F)c2CNc2ccc(-c3ccc(Cl)cc3)c(Cl)c2)cn1` [Compound 76, 3-(5-(2-(((2,4′-dichloro-[1,1′-biphenyl]-4-yl)amino)methyl)-3,5-bis(trifluoromethyl)phenyl)picolinamido)propanoic acid] showed a Ki of 14.5 nM. In the case of `Cc1cc(Cl)ccc1-c1ccc(NCc2c(-c3ccc(C(=O)NCCC(=O)O)nc3)cc(C(F)(F)F)cc2C(F)(F)F)cc1` [Compound 81, 3-(5-(2-(((4′-chloro-2′-methyl-[1,1′-biphenyl]-4-yl)amino)methyl)-3,5-bis(trifluoromethyl)phenyl)picolinamido)propanoic acid], the Ki is reported as 10 nM. Compound `Cc1cc(C(F)(F)F)ccc1-c1ccc(NCc2c(-c3ccc(C(=O)NCCC(=O)O)nc3)cc(C(F)(F)F)cc2C(F)(F)F)cc1` [Compound 83, 3-(5-(2-(((2′-methyl-4′-(trifluoromethyl)-[1,1′-biphenyl]-4-yl)amino)methyl)-3,5-bis(trifluoromethyl)phenyl)picolinamido)propanoic acid] has a Ki of 14.1 nM. Compound `O=C(O)CCNC(=O)c1ccc(-c2cc(C(F)(F)F)cc(C(F)(F)F)c2CNc2ccc(-c3cccc(Cl)c3Cl)cc2)cn1` [Compound 84, 3-(5-(2-(((2′,3′-dichloro-[1,1′-biphenyl]-4-yl)amino)methyl)-3,5-bis(trifluoromethyl)phenyl)picolinamido)propanoic acid] has a Ki of 36.7 nM. In the case of `O=C(O)CCNC(=O)c1ccc(-c2cc(C(F)(F)F)cc(C(F)(F)F)c2CNc2ccc(-c3c(Cl)cccc3Cl)cc2)cn1` [Compound 85, 3-(5-(2-(((2′,6′-dichloro-[1,1′-biphenyl]-4-yl)amino)methyl)-3,5-bis(trifluoromethyl)phenyl)picolinamido)propanoic acid], the Ki is reported as 32.4 nM.
